Data published in patent US20260183274A1, “PDK1 REGULATORY COMPOUND AND COMPOSITION CONTAINING THE SAME” (PROVIBIO CO., LTD., priority 2024, published 2026).

Legend:
Type in all cases: cell-based
[1] = tested on: T cells isolated from mouse spleens; assay: T cell proliferation inhibition (CFSE flow cytometry, anti-CD3/anti-CD28 stimulation); details: mouse spleen T cells, 3 days; for inhibition at 0.01 µM / inhibition at 0.1 µM / inhibition at 1 µM / inhibition at 10 µM / inhibition at 30 µM / inhibition at 50 µM: Mus musculus, T-cell, 72 h, read-out: Proliferation inhibition rate (%)
Summary of the method: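 Splenic T cells from 7-week-old C57BL/6 mice were MACS-isolated, CFSE-labelled, seeded at 2×10^5 cells/well and activated with anti-CD3/anti-CD28 (0.5 μg/mL each). Compound at 10 nM–50 μM (six levels, triplicate) was present for 3 days at 37 °C before flow cytometric readout of proliferation inhibition rate.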

[2] = tested on: Human B Lymphocyte cell line, SU-DHL-8; assay: Relative cell viability CCK-8, SU-DHL-8; details: 48 hours, untreated (DMSO) = 100%; for viability at 1 µM / viability at 10 µM / viability at 30 µM / viability at 50 µM: Homo sapiens, SU-DHL-8, 48 h; for viability at 1 µM: read-out: Relative cell viability (%), SU-DHL-8, 1 μM; for viability at 10 µM: read-out: Relative cell viability (%), SU-DHL-8, 10 μM; for viability at 30 µM: read-out: Relative cell viability (%), SU-DHL-8, 30 μM; for viability at 50 µM: read-out: Relative cell viability (%), SU-DHL-8, 50 μM
Summary of the method: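 Cells grown in RPMI-1640 with 10% FBS, treated with compound at several concentrations, then given CCK-8 for 4 h at 37° C. Viability expressed as percent of DMSO-treated cells.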

[3] = tested on: Human Head and Neck cancer, Fadu; assay: Relative cell viability CCK-8, Fadu; details: Fadu cells, relative to untreated cells
Experimental: Human-derived head and neck cancer cell line Fadu and osteosarcoma cell line Saos-2 were cultured in MEM medium containing 10% FBS, 100 U/mL penicillin, and 100 μg/mL streptomycin.
Following stabilization, the cells were harvested using Trypsin-EDTA treatment, centrifuged at 1,200 rpm for 3 minutes, the supernatant was removed, and the cells were resuspended in the same medium. They were then seeded into a 96-well plate (Costar 96-well cell culture plate, Corning) at 100 μL per well, and the conditions were adjusted as indicated in Table 5.
The cells were cultured in a 5% CO2 incubator at 37° C. for 24 hours, and after stabilization of the cells, each plate was washed with 200 μL of PBS per well and treated with 50 μL of culture medium per well.
After that, 10 μL of CCK-8 was added to each well, and the plate was incubated again at 37° C. in a 5% CO2 incubator for 2 hours.
In other words, when the survival rate of untreated cells (DMSO) is set at 100%, the relative cell survival rate in each group treated with the drug at different concentrations is indicated.

Row | SMILES | inhibition at 0.01 µM ([1]; compound 10 nM) | inhibition at 0.1 µM ([1]; compound 100 nM) | inhibition at 1 µM ([1]; compound 1 μM) | inhibition at 10 µM ([1]; compound 10 μM) | inhibition at 30 µM ([1]; compound 30 μM) | inhibition at 50 µM ([1]; compound 50 μM) | viability at 1 µM [2] | viability at 10 µM [2] | viability at 30 µM [2] | viability at 50 µM [2] | Proliferation inhibition rate (%) ([1]; compound 10 nM) | Proliferation inhibition rate (%) ([1]; compound 100 nM) | Proliferation inhibition rate (%) ([1]; compound 1 μM) | Proliferation inhibition rate (%) ([1]; compound 10 μM) | Proliferation inhibition rate (%) ([1]; compound 30 μM) | Proliferation inhibition rate (%) ([1]; compound 50 μM) | Relative cell viability (%), SU-DHL-8 ([2]; 1 μM) | Relative cell viability (%), SU-DHL-8 ([2]; 10 μM) | Relative cell viability (%), SU-DHL-8 ([2]; 30 μM) | Relative cell viability (%), SU-DHL-8 ([2]; 50 μM) | further results
1 | Nc1ncccc1C(=O)NCCCCCCCCCCCCN1CCC(c2ccc([N+](=O)[O-])cc2)CC1 [Compound 44, 2-Amino-N-(12-(4-(4-nitrophenyl)piperidin-1-yl)dodecyl)nicotinamide] | -6.21% | 100% | 100% | 100% | 100% | 100% | 6.14% | 4.91% | 2.54% | 1.41% |  |  |  |  |  |  |  |  |  |  | viability at 1 µM ([3]; Homo sapiens, FaDu, 1 μM): 1.22%; viability at 10 µM ([3]; Homo sapiens, FaDu, 10 μM): 5.89%; viability at 30 µM ([3]; Homo sapiens, FaDu, 30 μM): 2.94%
2 | Nc1ncccc1C(=O)NCCCCCCCCCCCCN1CCC(O)CC1 [Compound 47, 2-Amino-N-(12-(4-hydroxypiperidin-1-yl)dodecyl)nicotinamide] | -28.8% | 100% | 100% | 100% | 100% | 100% | 11.7% | 10% | 9.4% | 8.33% |  |  |  |  |  |  |  |  |  |  | viability at 1 µM ([3]; Homo sapiens, FaDu, 1 μM): 10%; viability at 10 µM ([3]; Homo sapiens, FaDu, 10 μM): 19.9%; viability at 30 µM ([3]; Homo sapiens, FaDu, 30 μM): 7.34%; viability at 50 µM ([3]; Homo sapiens, FaDu, 50 μM): 5.02%
3 | Cl.Nc1ncccc1C(=O)NCCCCCCCCCCCCN1CC[C@H](N)C1 [Compound 50, (S)-2-Amino-N-(12-(3-aminopyrrolidin-1-yl)dodecyl) nicotinamide hydrochloride] |  |  |  |  |  |  |  |  |  |  | −7.48% | 100.00% | 100.00% | 100.00% | 100.00% | 100.00% | 9.20% | 8.18% | 6.18% | 4.31% | Relative cell viability (%) ([3]; 1 μM): 20.78%; Relative cell viability (%) ([3]; 10 μM): 26.55%; Relative cell viability (%) ([3]; 30 μM): 23.42%; Relative cell viability (%) ([3]; 50 μM): 7.05%
4 | Cc1ccc(OC2CCN(CCCCCCCCCCCCNC(=O)c3cccnc3N)CC2)cc1 [Compound 51, 2-Amino-N-(12-(4-(p-tolyloxy)piperidin-1-yl)dodecyl) nicotinamide] |  |  |  |  |  |  |  |  |  |  | 0.77% | 16.10% | 100.00% | 100.00% | 100.00% | 100.00% |  |  |  |  | Relative cell viability (%) ([3]; 1 μM): 24.93%; Relative cell viability (%) ([3]; 10 μM): 17.30%; Relative cell viability (%) ([3]; 50 μM): 7.69%
5 | Nc1ncccc1C(=O)NCCCCCCCCCCCCN1CCN(CCO)CC1 [Compound 54, 2-Amino-N-(12-(4-(2-hydroxyethyl)piperazin-1-yl)dodecyl) nicotinamide] |  |  |  |  |  |  |  |  |  |  | −43.03% | 100.00% | 100.00% | 100.00% | 100.00% | 100.00% | 6.42% | 4.05% | 3.26% | 2.23% | Relative cell viability (%) ([3]; 1 μM): 24.97%; Relative cell viability (%) ([3]; 10 μM): 33.03%; Relative cell viability (%) ([3]; 30 μM): 32.41%; Relative cell viability (%) ([3]; 50 μM): 18.65%
6 | CN1CCN(C2CCN(CCCCCCCCCCCCNC(=O)c3cccnc3N)CC2)CC1 [Compound 124, 2-Amino-N-(12-(4-(4-methylpiperazin-1-yl)piperidin-1-yl)dodecyl)nicotinamide] | 0% | 20% | 30% | 100% | 100% | 100% | 30.4% | 30.7% | 32.1% | 31.7% |  |  |  |  |  |  |  |  |  |  | 
7 | COc1cc2c(cc1OC)CN(CCCCCCCCCCCCNC(=O)c1cccnc1N)CC2 [Compound 125, 2-Amino-N-(12-(6,7-dimethoxy-3,4-dihydroisoquinolin-2 (1H)-yl)dodecyl)nicotinamide] | -4.48% | 100% | 100% | 100% | 100% | 100% | 42% | 42.6% | 42% | 42.7% |  |  |  |  |  |  |  |  |  |  | 
8 | COC1CCN(CCCCCCCCCCCCNC(=O)c2cccnc2N)C1 (stereo not drawn) [Compound 126, 2-amino-N-(12-(3-methoxypyrrolidin-1-yl)dodecyl) nicotinamide] |  |  |  |  |  |  |  |  |  |  |  | 100.00% | 100.00% | 100.00% | 100.00% | 100.00% |  |  |  |  | Proliferation inhibition rate (%) ([1]; compound 10 nM, listed as K-PB-48, 0.01 µM): 0.00%; Relative cell viability (%), SU-DHL-8 ([2]; 1 μM, listed as K-PB-48, 1 µM): 33.03%; Relative cell viability (%), SU-DHL-8 ([2]; 10 μM, listed as K-PB-48, 10 µM): 31.98%; Relative cell viability (%), SU-DHL-8 ([2]; 30 μM, listed as K-PB-48, 30 µM): 32.32%; Relative cell viability (%), SU-DHL-8 ([2]; 50 μM, listed as K-PB-48, 50 µM): 30.44%
9 | Nc1ncccc1C(=O)NCCCCCCCCCCCCN1CC=CC1 [Compound 129, 2-amino-N-(12-(2,5-dihydro-1H-pyrrol-1-yl)dodecyl) nicotinamide] |  |  |  |  |  |  |  |  |  |  | 0.00% | 90.00% | 100.00% | 100.00% | 100.00% | 100.00% | 34.26% | 33.99% | 35.05% | 34.27% | 
10 | Nc1ncccc1C(=O)CCCCCCCCCCCCCN1CC2CCC(C1)O2 [Compound 131, 1-(2-aminopyridin-3-yl)-14-(8-oxa-3-azabicyclo[3.2.1]octan-3-yl)tetradecan-1-one] | -6.12% | 100% | 100% | 100% | 100% | 100% | 44.8% | 42.1% | 42.7% | 42.5% |  |  |  |  |  |  |  |  |  |  | 
